# Reference: PubChem BioAssay AID180 (DTP/NCI, 2004)
# Several values for one entry are separate records, joined by “and”; a condition that tells them apart may be missing. Equal values may be shown once.
# Test system: BDF1 mice, Adenocarcinoma 755 s.c., tumor weight T/C
# Assay: NCI In Vivo Anticancer Drug Screen. Data for tumor model Adenocarcinoma 755 (subcutaneous) in B6D2F1 (BDF1) mice
# Details: endpoint: mean tumor weight, higher = larger tumour
# How it was run: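 In vivo antitumor screen on a transplantable tumor line. Result equals the measure in compound-treated animals divided by the same measure in vehicle controls.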
# [1] = dose: 25.0 mg/kg/injection, schedule: Q01DX011 (ip), vehicle: methylcellulose (MC)
# [2] = dose: 50.0 mg/kg/injection, schedule: Q01DX011 (ip), vehicle: methylcellulose (MC)
# [3] = dose: 100.0 mg/kg/injection, schedule: Q01DX011 (ip), vehicle: methylcellulose (MC)
compound,measurement,setting,value
Cn1cnc([N+](=O)[O-])c1Sc1ncnc2nc[nH]c12,T/C,"dose: 0.03 mg/kg/injection, schedule: Q01DX011 (oral), vehicle: other",79 % of control
same,T/C,"dose: 0.06 mg/kg/injection, schedule: Q01DX011 (oral), vehicle: other",63 % of control
same,T/C,"dose: 0.12 mg/kg/injection, schedule: Q01DX011 (oral), vehicle: other",48 % of control
same,T/C,"dose: 0.25 mg/kg/injection, schedule: Q01DX006 (iv), vehicle: other",64 % of control
same,T/C,"dose: 0.25 mg/kg/injection, schedule: Q01DX011 (oral), vehicle: other",36 % of control
same,T/C,"dose: 0.5 mg/kg/injection, schedule: Q01DX006 (iv), vehicle: other",58 % of control
same,T/C,"dose: 0.5 mg/kg/injection, schedule: Q01DX011 (oral), vehicle: other",40 % of control
same,T/C,"dose: 1.0 mg/kg/injection, schedule: Q01DX006 (iv), vehicle: other",16 % of control
same,T/C,"dose: 1.0 mg/kg/injection, schedule: Q01DX011 (oral), vehicle: other",5 % of control and 10 % of control
same,T/C,"dose: 2.0 mg/kg/injection, schedule: Q01DX006 (iv), vehicle: other",9 % of control
same,T/C,"dose: 2.0 mg/kg/injection, schedule: Q01DX011 (ip), vehicle: other",3 % of control
same,T/C,"dose: 2.5 mg/kg/injection, schedule: Q01DX011 (ip), vehicle: methylcellulose (MC)",15 % of control and 36 % of control
same,T/C,"dose: 2.5 mg/kg/injection, schedule: Q01DX011 (oral), vehicle: other",2 % of control
same,T/C,"dose: 3.1 mg/kg/injection, schedule: Q01DX001 (ip), vehicle: other",56 % of control
same,T/C,"dose: 4.0 mg/kg/injection, schedule: Q01DX006 (iv), vehicle: other",3 % of control
same,T/C,"dose: 4.0 mg/kg/injection, schedule: Q01DX011 (im), vehicle: other",3 % of control
same,T/C,"dose: 4.0 mg/kg/injection, schedule: Q01DX011 (iv), vehicle: other",17 % of control
same,T/C,"dose: 4.0 mg/kg/injection, schedule: Q01DX011 (sc), vehicle: other",1 % of control
same,T/C,"dose: 4.0 mg/kg/injection, schedule: Q#A X022 (ip), vehicle: other",2 % of control
same,T/C,"dose: 5.0 mg/kg/injection, schedule: Q01DX011 (ip), vehicle: methylcellulose (MC)",4 % of control and 7 % of control
same,T/C,"dose: 6.3 mg/kg/injection, schedule: Q01DX001 (ip), vehicle: other",52 % of control
same,T/C,"dose: 8.0 mg/kg/injection, schedule: Q01DX011 (im), vehicle: other",1 % of control
same,T/C,"dose: 8.0 mg/kg/injection, schedule: Q01DX011 (iv), vehicle: other",2 % of control
same,T/C,"dose: 9.5 mg/kg/injection, schedule: Q01DX011 (ip), vehicle: methylcellulose (MC)",2 % of control and 8 % of control
same,T/C,"dose: 10.0 mg/kg/injection, schedule: Q01DX011 (ip), vehicle: methylcellulose (MC)",4 % of control and 7 % of control
same,T/C,"dose: 12.0 mg/kg/injection, schedule: Q03DX004 (ip), vehicle: other",2 % of control
same,T/C,"dose: 12.5 mg/kg/injection, schedule: Q01DX001 (ip), vehicle: other",28 % of control
same,T/C,"dose: 16.0 mg/kg/injection, schedule: Q01DX011 (iv), vehicle: other",1 % of control
same,T/C,"dose: 19.0 mg/kg/injection, schedule: Q01DX011 (ip), vehicle: methylcellulose (MC)",2 % of control
same,T/C,"dose: 20.0 mg/kg/injection, schedule: Q01DX011 (oral), vehicle: other",7 % of control
same,T/C,"dose: 25.0 mg/kg/injection, schedule: Q01DX001 (ip), vehicle: other",1 % of control and 2 % of control and 20 % of control
same,T/C,"dose: 28.0 mg/kg/injection, schedule: Q07DX002 (ip), vehicle: other",17 % of control
same,T/C,"dose: 38.0 mg/kg/injection, schedule: Q01DX011 (ip), vehicle: methylcellulose (MC)",2 % of control
same,T/C,"dose: 40.0 mg/kg/injection, schedule: Q01DX011 (oral), vehicle: other",9 % of control
same,T/C,"dose: 50.0 mg/kg/injection, schedule: Q01DX001 (ip), vehicle: other",41 % of control
same,T/C,"dose: 56.0 mg/kg/injection, schedule: Q07DX002 (ip), vehicle: other",3 % of control
same,T/C,"dose: 96.0 mg/kg/injection, schedule: Q03DX004 (ip), vehicle: other",1 % of control
same,T/C,"dose: 100.0 mg/kg/injection, schedule: Q01DX001 (ip), vehicle: other",1 % of control
same,T/C,"dose: 112.0 mg/kg/injection, schedule: Q07DX002 (ip), vehicle: other",8 % of control
same,T/C,"dose: 200.0 mg/kg/injection, schedule: Q01DX001 (ip), vehicle: other",45 % of control
CC(C)C(Nc1ncnc2nc[nH]c12)C(=O)O (centres undefined),T/C,"dose: 12.0 mg/kg/injection, schedule: Q01DX011 (ip), vehicle: methylcellulose (MC)",180 % of control
same,T/C,[1],230 % of control
same,T/C,[2],239 % of control
same,T/C,[3],192 % of control
CC(=O)Nc1cc2c(cc1Br)-c1ccccc1C2O (centres undefined),T/C,"dose: 35.0 mg/kg/injection, schedule: Q01DX011 (ip), vehicle: saline",43 % of control
same,T/C,"dose: 75.0 mg/kg/injection, schedule: Q01DX011 (ip), vehicle: saline",52 % of control
same,T/C,"dose: 155.0 mg/kg/injection, schedule: Q01DX011 (ip), vehicle: saline",38 % of control
same,T/C,"dose: 210.0 mg/kg/injection, schedule: Q01DX011 (ip), vehicle: saline",23 % of control
Cn1c(=O)c2c(nc(N/N=C/c3ccccc3C(=O)O)n2C)n(C)c1=O,T/C,"dose: 30.0 mg/kg/injection, schedule: Q01DX011 (ip), vehicle: carboxymethylcellulose (CMC)",76 % of control
same,T/C,"dose: 60.0 mg/kg/injection, schedule: Q01DX011 (ip), vehicle: carboxymethylcellulose (CMC)",69 % of control
same,T/C,"dose: 120.0 mg/kg/injection, schedule: Q01DX011 (ip), vehicle: carboxymethylcellulose (CMC)",74 % of control
same,T/C,"dose: 240.0 mg/kg/injection, schedule: Q01DX011 (ip), vehicle: carboxymethylcellulose (CMC)",62 % of control
CC(CNC(=O)CCOS(C)(=O)=O)NC(=O)CCOS(C)(=O)=O (centres undefined),T/C,"dose: 14.0 mg/kg/injection, schedule: Q01DX011 (ip), vehicle: carboxymethylcellulose (CMC)",71 % of control
same,T/C,"dose: 28.0 mg/kg/injection, schedule: Q01DX011 (ip), vehicle: carboxymethylcellulose (CMC)",36 % of control and 60 % of control
same,T/C,"dose: 113.0 mg/kg/injection, schedule: Q01DX011 (ip), vehicle: carboxymethylcellulose (CMC)",2 % of control (2×) and 3 % of control
same,T/C,"dose: 225.0 mg/kg/injection, schedule: Q01DX011 (ip), vehicle: carboxymethylcellulose (CMC)",7 % of control
C[C@H]1C[C@H]2[C@@H]3CC[C@](O)(C(=O)CF)[C@@]3(C)C[C@H](O)[C@]2(F)[C@@]2(C)C=CC(=O)C=C12,T/C,"dose: 0.62 mg/kg/injection, schedule: Q01DX011 (sc), vehicle: steriod suspending solution",89 % of control
same,T/C,"dose: 1.0 mg/kg/injection, schedule: Q01DX011 (sc), vehicle: steriod suspending solution",76 % of control
same,T/C,"dose: 1.25 mg/kg/injection, schedule: Q01DX011 (sc), vehicle: steriod suspending solution",69 % of control
same,T/C,"dose: 10.0 mg/kg/injection, schedule: Q01DX011 (sc), vehicle: steriod suspending solution",16 % of control and 29 % of control and 33 % of control
same,T/C,"dose: 20.0 mg/kg/injection, schedule: Q01DX011 (sc), vehicle: steriod suspending solution",18 % of control and 27 % of control
same,T/C,"dose: 40.0 mg/kg/injection, schedule: Q01DX011 (sc), vehicle: steriod suspending solution",11 % of control and 14 % of control
same,T/C,"dose: 80.0 mg/kg/injection, schedule: Q01DX011 (sc), vehicle: steriod suspending solution",14 % of control
same,T/C,"dose: 160.0 mg/kg/injection, schedule: Q01DX011 (sc), vehicle: steriod suspending solution",4 % of control
O=C(O)CNc1ncnc2[nH]ncc12,T/C,"dose: 12.5 mg/kg/injection, schedule: Q01DX011 (ip), vehicle: methylcellulose (MC)",65 % of control
same,T/C,[1],82 % of control
same,T/C,[2],36 % of control
same,T/C,[3],2 % of control and 7 % of control
O=C(N/N=C\c1ccc(Br)cc1)c1ccncc1,T/C,"dose: 30.0 mg/kg/injection, schedule: Q01DX011 (ip), vehicle: methylcellulose (MC)",52 % of control
same,T/C,"dose: 60.0 mg/kg/injection, schedule: Q01DX011 (ip), vehicle: methylcellulose (MC)",52 % of control
same,T/C,"dose: 120.0 mg/kg/injection, schedule: Q01DX011 (ip), vehicle: methylcellulose (MC)",62 % of control
same,T/C,"dose: 240.0 mg/kg/injection, schedule: Q01DX011 (ip), vehicle: methylcellulose (MC)",37 % of control
same,T/C,"dose: 500.0 mg/kg/injection, schedule: Q01DX011 (ip), vehicle: methylcellulose (MC)",64 % of control
Nc1nc(SCc2ccccc2)c2ncn(C3OC(CO)C(O)C3O)c2n1 (centres undefined),T/C,[1],10 % of control
same,T/C,[2],7 % of control
same,T/C,"dose: 75.0 mg/kg/injection, schedule: Q01DX011 (ip), vehicle: methylcellulose (MC)",8 % of control
same,T/C,[3],6 % of control
C=CC(O)CN1CC1=C (centres undefined),T/C,"dose: 1.9 mg/kg/injection, schedule: Q01DX011 (ip), vehicle: methylcellulose (MC)",77 % of control
same,T/C,"dose: 3.75 mg/kg/injection, schedule: Q01DX011 (ip), vehicle: methylcellulose (MC)",111 % of control
same,T/C,"dose: 7.5 mg/kg/injection, schedule: Q01DX011 (ip), vehicle: methylcellulose (MC)",73 % of control
same,T/C,"dose: 15.0 mg/kg/injection, schedule: Q01DX011 (ip), vehicle: methylcellulose (MC)",21 % of control
CCCCCCCCOc1nc(N)nc2n[nH]nc12,T/C,"dose: 50.0 mg/kg/injection, schedule: Q01DX011 (ip), vehicle: carboxymethylcellulose (CMC)",112 % of control
same,T/C,"dose: 100.0 mg/kg/injection, schedule: Q01DX011 (ip), vehicle: carboxymethylcellulose (CMC)",69 % of control
same,T/C,"dose: 200.0 mg/kg/injection, schedule: Q01DX011 (ip), vehicle: carboxymethylcellulose (CMC)",57 % of control
